# What was measured:
# Assay type in all cases: in vivo, BALB/c mice
# [1] = system: McKrae strain of HSV-1; experiment: Heat-stress reactivation of latent HSV-1 in mice: infectious virus on ocular surface swabs (ASA)
# Description: The McKrae strain of HSV-1 was propagated in Vero cells (ATCC No. CCL-81, American Type Culture Collection, Manassass, Va.), titered by viral plaque assay, and stored at −70° C. until used to infect animals.
# (§1) Ocular swabs were immersed in 0.2 ml of complete tissue culture medium consisting of RPMI-1640, 10% fetal bovine serum (FBS), and an antibiotic-antimycotic mixture (Life Technologies, Grand Island, N.Y.). The swabs in culture medium were stored at 4° C. until testing by plaque assay. The determination of infectious virus in the cornea and in the trigeminal ganglia of animals were performed in a similar manner. Pairs of corneas and ganglia from individual mice were placed in separate tubes in 0.2 ml of complete medium, homogenized, clarified by centrifugation at 14,000×g for 5 minutes and the supernatant tested for infectious virus on Vero cells.
# (§2) Male BALB/c strain mice (The Jackson Laboratory, Bar Harbor, Me.) were infected at 5 weeks of age by topical application of 5×10^5 plaque forming units of the McKrae strain HSV-1 following superficial scratching of the cornea. Documentation of the success of viral infection was determined by culturing ocular swabs taken on days 3 and 5 after infection. Animals without infectious virus on both days 3 and 5 in both eyes were excluded from use in these experiments. Thirty days after infection the eyes were swabbed to establish that infectious virus was no longer present on the ocular surface. Groups of uninfected age and sex matched mice were used as control animals in this study.
# (§3) To test the effect of acetylsalicylic acid (ASA) on reactivation of HSV induced by heat stress, two sets of experiments were performed. In one set, groups of mice with latent HSV were immersed in 43° C. water up to their necks for 10 minutes. Following the hyperthermic stress, the animals were dried and given an intraperitoneal (IP) injection of 0.1 mg of ASA (Sigma Chemical Co., St. Louis, Mo.) suspended in 0.1 ml saline. At 8 and 16 hours after hyperthermia, the animals were again treated with ASA. Control mice were given IP injections of saline on the same schedule. At 24 hr after hyperthermic stress, the eyes were swabbed, the mice were sacrificed, and the corneas and trigeminal ganglia analyzed for infectious virus and viral DNA.
# (§4) In a second experiment, groups of mice were treated IP for 3 days prior to hyperthermic stress at 8 hr intervals on each of the 3 days. The animals were then heat stressed, treated immediately after stress with ASA, and treated at 8 and 16 hr after hyperthermic stress. Control mice were given IP injections of saline on the same schedule. Two additional groups of mice were prophylactically treated by oral administration of 0.1 mg ASA or saline on the same dose schedule. In each experiment, animals were subdivided into those which were hyperthermically stressed and those which were not stressed. As above, the eyes of these animals were swabbed at 24 hr after stress and then sacrificed for analysis of infectious virus and viral DNA in their corneas and trigeminal ganglia.
# (§5) Control mice for each of these experiments included animals which were latent for HSV-1 but which were not heat stressed. Subsets of this control group included animals placebo-treated and animals treated with ASA. Two additional control groups of animals were those which were not latent for HSV-1, but which were either treated with placebo or ASA on the schedules outlined above.
# [2] = system: McKrae strain of HSV-1; experiment: Quantitation of viral DNA by PCR in cornea and trigeminal ganglion of latently infected mice (ASA); conditions: pooled from six mice
# Source text: Quantitation of viral DNA in tissue homogenates was made using the polymerase chain reaction (PCR), as previously reported. See B. M. Gebhardt et al., “9-(4-hydroxybutyl)-N^2-phenylguanine (HBPG), a thymidine kinase inhibitor, suppresses herpes virus reactivation in mice,” Antiviral Res., vol. 30, pp. 87-94 (1996); and J. M. Hill et al., “Quantitative analysis of polymerase chain reaction products by dot blot,” Analyt. Biochem., vol. 235, pp. 44-48 (1996). In brief, the procedure involves comparing DNA extracted from experimental and control tissue samples containing viral DNA, and performing serial dilutions with DNA from homologous tissue homogenates of uninfected animals. Using a log dilution series and previously determined quantities of viral DNA, it is possible to obtain a series of curves which permit the sensitive and reproducible determination of viral DNA in experimental samples. The sensitivity of this procedure permits the determination of differences of 100 viral genome equivalents per sample. In each experimental series, standard curves were conducted along with the analyses of the tissue homogenates from experimental (drug treated) and control (placebo treated) mice.
# as §3, §4
# [3] = system: McKrae strain of HSV-1; experiment: Heat-stress reactivation of latent HSV-1 in mice: infectious virus in cornea and trigeminal ganglia homogenates (ASA)
# Description: as §1, §2, §3, §4, §5
# [4] = system: McKrae strain of HSV-1; experiment: Heat-stress reactivation of latent HSV-1 in mice: infectious virus in the trigeminal ganglia (celecoxib); conditions: not stressed
# Source text: (§6) To test the effect of a selective COX-2 inhibitor on recurrence of HSV, female BALB/c mice (The Jackson Laboratory, Bar Harbor, Me.) at 4 weeks of age were used. The strain of HSV and the method of propagation were as described in Example 1.
# (§7) The mice were infected by the topical ocular route, and the establishment of a corneal infection was documented by slit lamp examination and ocular swabs on day 3 after infection. Only animals which were successfully infected were retained for use in these experiments. Thirty days after infection, groups of 15 latently infected and 15 uninfected mice were treated with the COX 2 inhibitor, celecoxib (G. D. Searle & Co., Skokie, Ill.). The dose of celecoxib that would inhibit viral reactivation was determined in a preliminary experiment in which groups of mice were injected intraperitoneally with 0.1, 0.5, 1.0, and 5.0 mg of celecoxib four times daily. The mice were treated one day before heat stress and the day of the heat stress. […] This dosage was used in all subsequent experiments.
# (§8) Two days prior to hyperthermic stress, uninfected mice and latently infected mice were treated four times daily with celecoxib at a concentration of 0.5 mg per treatment. […] Units of Infectious virus were recorded as units of cytopathic effect over a period of seven days. […] The units of cytopathic effect were recorded over a seven day incubation period. […]
# [5] = system: McKrae strain of HSV-1; experiment: Preliminary dose-finding experiment for inhibition of viral reactivation by celecoxib; conditions: IP four times daily; 0.1, 0.5, 1.0 and 5.0 mg tested; one day before and day of heat stress
# Description: as §7
# [6] = system: McKrae strain of HSV-1; experiment: Heat-stress reactivation of latent HSV-1 in mice: infectious virus on the ocular surface (celecoxib); conditions: not stressed
# Source text: as §6, §7, §8
# [7] = Experiment 1, heat stressed, ASA 0.1 mg IP after stress and at 8 and 16 h, swabs 24 hrs after heat stress
# [8] = Experiment 1, latent mice not stressed, ASA-treated
# [9] = Experiment 2, heat stressed, ASA 0.1 mg IP after stress and at 8 and 16 h, swabs 24 hrs after heat stress
# [10] = Experiment 2, latent mice not stressed, ASA-treated
# [11] = Experiment 3, heat stressed, ASA 0.1 mg IP after stress and at 8 and 16 h, swabs 24 hrs after heat stress
# [12] = Experiment 3, latent mice not stressed, ASA-treated
# [13] = Cornea, ASA from time of hyperthermic stress, 24 h after stress
# [14] = Prophylactic ASA IP, 3 days prior to stress, cornea, 24 hrs after stress
# [15] = Prophylactic ASA IP, 3 days prior to stress, trigeminal ganglia, 24 hrs after stress
# [16] = Prophylactic ASA oral gavage 0.1 mg, 3 days prior to stress, cornea, 24 hrs after stress
# [17] = Prophylactic ASA oral gavage 0.1 mg, 3 days prior to stress, trigeminal ganglia, 24 hrs after stress
# [18] = Trigeminal ganglia, ASA from time of hyperthermic stress, 24 h after stress
# [19] = 0.5 mg celecoxib four times daily IP for two days
# [20] = 0.5 mg celecoxib four times daily orally for two days
structure (smiles),measurement,setting,value
"CC(=O)Oc1ccccc1C(=O)O [ASA, acetylsalicylic acid]",Levels of infectious virus in ocular tear film compared to placebo-treated mice,"[1]; ASA IP or orally for three days prior to hyperthermic stimulus, data not shown",significantly lower
same,"Infectious Virus (no. positive/total), ocular surface swabs",[1]; [7],2/12
same,Percent of ocular swab cultures which contained virus,[1]; [7],(17%)
same,"Infectious Virus (no. positive/total), ocular surface swabs",[1]; [8],0/10
same,Percent of ocular swab cultures which contained virus,[1]; [8],(0%)
same,"Infectious Virus (no. positive/total), ocular surface swabs",[1]; [9],3/12
same,Percent of ocular swab cultures which contained virus,[1]; [9],(25%)
same,"Infectious Virus (no. positive/total), ocular surface swabs",[1]; [10],0/8
same,Percent of ocular swab cultures which contained virus,[1]; [10],(0%)
same,"Infectious Virus (no. positive/total), ocular surface swabs",[1]; [11],3/12
same,Percent of ocular swab cultures which contained virus,[1]; [11],(25%)
same,"Infectious Virus (no. positive/total), ocular surface swabs",[1]; [12],0/10
same,Percent of ocular swab cultures which contained virus,[1]; [12],(0%)
same,Viral DNA (genome equivalents),"[2]; ASA prophylaxis prior to heat stress, heat stressed, TG",4.9 × 10^4 genome equivalents
same,Viral DNA (genome equivalents),"[2]; ASA prophylaxis prior to heat stress, heat stressed, cornea",0.4 × 10^4 genome equivalents
same,Viral DNA (genome equivalents),"[2]; ASA prophylaxis schedule, not stressed, TG",2.3 × 10^2 genome equivalents
same,Viral DNA (genome equivalents),"[2]; ASA prophylaxis schedule, not stressed, cornea",<1 × 10^2 genome equivalents
same,Viral DNA (genome equivalents),"[2]; Heat stressed, TG, ASA from time of stress",2.1 × 10^4 genome equivalents
same,Viral DNA (genome equivalents),"[2]; Heat stressed, cornea, ASA from time of stress",0.9 × 10^3 genome equivalents
same,Viral DNA (genome equivalents),"[2]; Not stressed, TG, ASA-treated",1.5 × 10^2 genome equivalents
same,Viral DNA (genome equivalents),"[2]; Not stressed, cornea, ASA-treated",<1 × 10^2 genome equivalents
same,"Infectious Virus (no. positive/total), cornea homogenates",[3]; [13],5/36
same,Percent of cornea homogenate cultures which contained virus,[3]; [13],(14%)
same,"Infectious Virus (no. positive/total), cornea homogenates",[3]; [14],2/10
same,Percent of cornea homogenate cultures which contained virus,[3]; [14],20%
same,"Infectious Virus (no. positive/total), trigeminal ganglia homogenates",[3]; [15],3/10
same,Percent of trigeminal ganglia homogenate cultures which contained virus,[3]; [15],30%
same,"Infectious Virus (no. positive/total), cornea homogenates",[3]; [16],2/14
same,Percent of cornea homogenate cultures which contained virus,[3]; [16],14%
same,"Infectious Virus (no. positive/total), trigeminal ganglia homogenates",[3]; [17],4/14
same,Percent of trigeminal ganglia homogenate cultures which contained virus,[3]; [17],29%
same,"Infectious Virus (no. positive/total), trigeminal ganglia homogenates",[3]; [18],8/36
same,Percent of trigeminal ganglia homogenate cultures which contained virus,[3]; [18],(22%)
Cc1ccc(-c2cc(C(F)(F)F)nn2-c2ccc(S(N)(=O)=O)cc2)cc1 [celecoxib],Infectious Virus in the Trigeminal Ganglia (mice positive/total),[4]; [19],0/12
same,Infectious Virus in the Trigeminal Ganglia (mice positive/total),[4]; [20],0/10
same,Most effective dose in preventing viral recurrence,[5],0.5 mg
same,Infectious Virus on the Ocular Surface (mice positive/total),[6]; [19],0/12
same,Infectious Virus on the Ocular Surface (mice positive/total),[6]; [20],0/14

# — patent US20030195242A1, “Use of Cox-2 inhibitors to prevent recurrences of herpesvirus infections” (priority 2002, published 2003)
